# Marks after values point to notes of the source that are not given here.
# How the values were obtained:
# CT26 tumor cells = assay: In vivo anti-tumor efficacy, CT26 tumor volumes (Example 11); set-up: species or system BALB/C mice; conditions: single intratumoral dose
# Method: Mice were subcutaneously implanted with 3×10^5 CT26 tumor cells in the left and right flanks. […] Hydrogels were administered as suspensions in PBST buffer. Following treatment initiation, anti-tumor efficacy was assessed by determination of tumor volumes at various time points from tumor size measurements with a caliper. Tumor volumes were calculated according to the formula: […]
# where L is the length of the tumor and W the width (both in mm). Mice were removed from the study once tumors were greater than 1500 mm^3.
# IFNγ = assay: In vivo cytokine induction, plasma cytokine levels: IFNγ (Example 12); set-up: species or system BALB/C mice; conditions: single intratumoral dose, values at or below LLOQ set to 0.01
# Method: (§1) Mice were subcutaneously implanted with 3×10^5 CT26 tumor cells in the left and right flanks. […] Hydrogels were administered as suspensions in PBST buffer. K2 EDTA-preserved blood samples were collected by retro-orbital bleed at various time points following drug administration and plasma was isolated following centrifugation at 2000×g for 5 minutes at 4° C. and frozen. Plasma samples were stored at −80° C. Plasma was thawed and undiluted samples were assessed for cytokine levels using the 36-Plex Mouse ProcartaPlex™ Cytokine Panel 1A (ThermoFisher Scientific) following manufacturer's recommendations. Cytokines were measured on the Bio-Plex 200 (BioRad) following kit instructions. For sample values below or at the lower limit of quantitation (LLOQ) of the assay, a value of 0.01 pg/mL was instead used in determining mean cytokine concentrations.
# IL-6 = assay: In vivo cytokine induction, plasma cytokine levels: IL-6 (Example 12); set-up: species or system BALB/C mice; conditions: single intratumoral dose
# Method: as §1
# TNFα = assay: In vivo cytokine induction, plasma cytokine levels: TNFα (Example 12); set-up: species or system BALB/C mice; conditions: single intratumoral dose
# Method: as §1
# Ccl3 = assay: PBMC gene expression (qPCR, 6 hours post-treatment): Ccl3 (Example 17); format: in vivo, BALB/C mice
# Method: (§2) Hydrogels were administered as suspensions in PTP buffer. […] Tumors were excised, weighed and snap frozen.
# (§3) For PBMC isolations, approximately 600 μl of whole blood was collected via cardiac puncture. The collected whole blood from each individual mouse was diluted with a 1:1 ratio of pre-warmed PBS supplemented with 2% Fetal Bovine Serum (FBS). Then an equal volume of Histopaque-1083 was added to a new sterile 15 mL conical tube, where the diluted whole blood was layered over the Histopaque-1083. The mixture was then centrifuged at 400 g for 30 minutes. […]
# (§4) Lysates from untreated control samples and 6 hour treated samples were thawed and RNA was isolated using the RNeasy Mini Kit (QIAGEN) following manufacturer's recommendations. […] RNA concentrations were measured using a NanoDrop (ThermoFisher) and then adjusted to […] with RNase-free water. RNA quality was assessed using a NanoDrop (ThermoFisher). […] 200 ng of cDNA was used for quantitative PCR using the RT^2 SYBR Green ROX qPCR Master mix (2×) kit (QIAGEN) following manufacturer's recommendations. […]
# (§5) Cycle thresholds (CT) were collected using a 384-well platform ABI-7900H real-time qPCR system (Applied Biosystems). […] 2^ΔΔCT values were calculated with the following formula: […]
# (§6) For each gene, 3 technical replicates were analyzed per biological replicate. Undetermined technical replicate CT values were recorded as zero ΔCT values. […]
# Ccl4 = assay: PBMC gene expression (qPCR, 6 hours post-treatment): Ccl4 (Example 17); format: in vivo, BALB/C mice
# Method: as §2, §3, §4, §5, §6
# Tnf = assay: PBMC gene expression (qPCR, 6 hours post-treatment): Tnf (Example 17); format: in vivo, BALB/C mice
# Method: as §2, §3, §4, §5, §6
substance,measurement,setting,value
Resiquimod [Compound 4],"Absolute tumor volume, Mean",CT26 tumor cells; day 0 post-treatment,88.82 mm^3
same,"Absolute tumor volume, Mean",CT26 tumor cells; day 2 post-treatment,108.44 mm^3
same,"Absolute tumor volume, Mean",CT26 tumor cells; day 4 post-treatment,128.42 mm^3
same,"Absolute tumor volume, Mean",CT26 tumor cells; day 7 post-treatment,316.07 mm^3
same,"Absolute tumor volume, Mean",CT26 tumor cells; day 9 post-treatment,549.72 mm^3
same,"Absolute tumor volume, Mean",CT26 tumor cells; day 11 post-treatment,957.90 mm^3
same,"Absolute tumor volume, Mean",CT26 tumor cells; day 14 post-treatment,1220.96 mm^3
same,"IFNγ plasma level, Mean",IFNγ; 1 h post-treatment,4.04 pg/mL
same,"IFNγ plasma level, Mean",IFNγ; 3 h post-treatment,"15.49†, ‡ pg/mL"
same,"IFNγ plasma level, Mean",IFNγ; 6 h post-treatment,"40.72†, ‡ pg/mL"
same,"IFNγ plasma level, Mean",IFNγ; 10 h post-treatment,"28.19†, ‡ pg/mL"
same,"IFNγ plasma level, Mean",IFNγ; 24 h post-treatment,2.38 pg/mL
same,"IL-6 plasma level, Mean",IL-6; 1 h post-treatment,"3618.87†, ‡ pg/mL"
same,"IL-6 plasma level, Mean",IL-6; 3 h post-treatment,"1739.75†, ‡ pg/mL"
same,"IL-6 plasma level, Mean",IL-6; 6 h post-treatment,88.59 pg/mL
same,"IL-6 plasma level, Mean",IL-6; 10 h post-treatment,154.51 pg/mL
same,"IL-6 plasma level, Mean",IL-6; 24 h post-treatment,44.71 pg/mL
same,"TNFα plasma level, Mean",TNFα; 1 h post-treatment,830.84 pg/mL
same,"TNFα plasma level, Mean",TNFα; 3 h post-treatment,136.25 pg/mL
same,"TNFα plasma level, Mean",TNFα; 6 h post-treatment,35.49 pg/mL
same,"TNFα plasma level, Mean",TNFα; 10 h post-treatment,43.32 pg/mL
same,"TNFα plasma level, Mean",TNFα; 24 h post-treatment,9.74 pg/mL
same,Ccl3 Mean (2^ΔΔCT),Ccl3,1.43†
same,Ccl3 Fold change (4/13i),Ccl3; ratio of 4 to 13i,1.64
same,Ccl4 Mean (2^ΔΔCT),Ccl4,1.31
same,Ccl4 Fold change (4/13i),Ccl4; ratio of 4 to 13i,1.74
same,Tnf Mean (2^ΔΔCT),Tnf,4.64
same,Tnf Fold change (4/13i),Tnf; ratio of 4 to 13i,4.45

# Source: patent publication US20220054477A1, “INDUCTION OF SUSTAINED LOCAL INFLAMMATION” (Ascendis Pharma Oncology Division A/S, priority 2019, published 2022)
